Test [1] addresses T1, PRMT5/MEP50 (Homo sapiens (Human), UniProt O14744). Briefly: PRMT5/MEP50 enzyme inhibition assay, Assay 2 (384-well, MALDI mass spectrometry, histone H4 1-21 peptide). The class given is biochemical. The settings on record: 1 μM SAM, 0.1 μM histone H4 1-21 peptide, 18-hour incubation at rt.
The target of test [2] is T1, PRMT5/MEP50. Put plainly: PRMT5/MEP50 enzyme inhibition assay, Assay 1 (radioisotope filter binding, 3H-SAM, histone H2A). The test is classed as biochemical. The note with it: 1 μM 3H-SAM, 5 μM histone H2A, 60 min at 30° C. Here is the method: Compounds were tested for inhibition of methyltransferase activity in a radioisotope filter binding assay, similar to previously described in A selective inhibitor of PRMT5 with in vivo and in vitro potency in MCL models. Chan-Penebre et al., Nat Chem Biol. (2015) 11(6):432-7. In the standard PRMT5/MEP50 enzyme inhibition assay, compounds were tested in a 10-dose IC50 mode with 3- or 5-fold serial dilution, in singlet, starting at 1, 10, or 100 μM. Control compound, SAH (S-(5′-Adenosyl)-L-homocysteine), was tested in 10-dose IC50 mode with 3-fold serial dilution starting at 100 μM. Reactions were carried out at 1 μM 3H-SAM (PerkinElmer) and 5 μM histone H2A as substrates for methyl transfer. Following a 60 min incubation at 30° C., the reaction was stopped with 20% TCA. Each reaction was spotted on a filter plate (Multiscreen FB Filter plate, Millipore) and washed 5 times in PBS, after which scintillation fluid was added and signal was detected in a scintillation counter. Percent enzyme activity was calculated based on no inhibitor DMSO control as 100% activity. EC50 values were determined in GraphPad Prism 8 using the [inhibitor] vs. response—Variable slope (four parameters) function.
Compounds of Formula (I) show activity in this assay. A value of ‘A’ in the table below indicates an IC50 of <1 nM, a value of ‘B’ indicates an IC50≥1 nM to ≤100 nM, and a value of ‘C’ indicates an IC50 value of >100 nM.

Test [3] deals with A549 lung carcinoma cells. Put plainly: Cell proliferation assay, A549 (CellTiter-Glo, 7 days). The test is classed as cell-based. The settings on record: A549, 7 days, CellTiter-Glo 2.0. In general terms: In ATP-based viability assays light output follows the ATP content of the culture.
In test [4] the test system is HepG2 hepatoma cells. Briefly: Cell proliferation assay, HepG2 (CellTiter-Glo, 7 days). The settings on record: HepG2, 7 days, CellTiter-Glo 2.0. The test is classed as cell-based.

Molecules are shown by their SMILES.

T1 sequence (O14744 whole entry): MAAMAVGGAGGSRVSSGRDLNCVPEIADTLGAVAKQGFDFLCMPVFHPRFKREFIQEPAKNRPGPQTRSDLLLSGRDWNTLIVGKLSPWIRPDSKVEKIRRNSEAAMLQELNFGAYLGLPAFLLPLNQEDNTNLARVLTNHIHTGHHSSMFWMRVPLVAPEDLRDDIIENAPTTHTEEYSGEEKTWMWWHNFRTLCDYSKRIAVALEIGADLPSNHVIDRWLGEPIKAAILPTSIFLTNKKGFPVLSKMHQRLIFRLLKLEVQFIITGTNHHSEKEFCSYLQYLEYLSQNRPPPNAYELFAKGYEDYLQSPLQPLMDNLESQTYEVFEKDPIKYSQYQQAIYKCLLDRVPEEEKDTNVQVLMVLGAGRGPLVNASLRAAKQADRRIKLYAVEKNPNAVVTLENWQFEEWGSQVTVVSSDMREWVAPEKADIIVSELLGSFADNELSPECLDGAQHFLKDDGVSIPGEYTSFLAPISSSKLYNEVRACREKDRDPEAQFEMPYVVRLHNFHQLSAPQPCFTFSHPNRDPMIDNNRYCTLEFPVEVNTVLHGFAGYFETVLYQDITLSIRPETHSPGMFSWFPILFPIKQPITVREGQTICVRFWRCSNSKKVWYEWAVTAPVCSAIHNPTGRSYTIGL
T1 sequence (Q9BQA1 whole entry partner): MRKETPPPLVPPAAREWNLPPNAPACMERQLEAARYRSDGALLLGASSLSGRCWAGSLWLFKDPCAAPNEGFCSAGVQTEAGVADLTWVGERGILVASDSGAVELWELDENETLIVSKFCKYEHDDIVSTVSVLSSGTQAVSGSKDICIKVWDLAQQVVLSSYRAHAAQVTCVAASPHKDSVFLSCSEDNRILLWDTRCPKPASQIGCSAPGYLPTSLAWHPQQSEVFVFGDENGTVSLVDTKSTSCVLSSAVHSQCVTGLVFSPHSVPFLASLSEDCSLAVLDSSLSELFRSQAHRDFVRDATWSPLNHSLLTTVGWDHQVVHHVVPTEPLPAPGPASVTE

A word on the IC50: it is the point on the concentration scale where inhibition reaches its midpoint. Read a low IC50 as greater potency. The EC50 is the concentration that produces a half-maximal response. Higher therefore signals lower potency in that assay. Turning to `C=C1[C@@H](n2ccc3c(N)ncnc32)[C@H](O)[C@H](O)[C@H]1CCc1ccc2cc(Br)c(Cl)nc2c1` [Compound 3], the concentration for half-maximal inhibition (IC50) in test [1] and in test [2] was > 100 nM each time. Also, the EC50 in test [3] and in test [4] was 100 to 1000 nM in each case.

For the molecule `C=C1[C@@H](n2ccc3c(N)ncnc32)[C@H](O)[C@H](O)[C@H]1CCc1ccc2cc(Br)c(N)nc2c1` [Compound 4], the IC50 in test [1] and in test [2] was < 1 nM throughout. Moreover, the EC50 in test [3] and in test [4] was < 20 nM throughout.

On to `C[C@H]1[C@H](CCc2ccc3ccc(N)nc3c2)[C@@H](O)[C@@H](O)[C@@H]1n1ccc2c(N)ncnc21` [Compound 5], for which the half-inhibitory concentration (IC50) in test [1] and in test [2] was < 1 nM in each case. Also, the EC50 in test [3] and in test [4] was 100 to 1000 nM in each case.

As to `C[C@@H]1[C@H](CCc2ccc3ccc(N)nc3c2)[C@@H](O)[C@@H](O)[C@@H]1n1ccc2c(N)ncnc21` [Compound 6], the IC50 in test [1] and in test [2] was 1 to 100 nM each time. In addition, the EC50 in test [3] and in test [4] was ≥ 1000 nM throughout.

For the molecule `Nc1nc2cc(OC[C@@]3(F)C[C@@H](n4ccc5c(N)ncnc54)[C@H](O)[C@@H]3O)ccc2cc1Br` [Compound 9, (1S,2S,3S,5R)-3-[(2-amino-3-bromo-7-quinolyl)oxymethyl]-5-(4-aminopyrrolo[2,3-d]pyrimidin-7-yl)-3-fluoro-cyclopentane-1,2-diol], the 50% inhibitory concentration (IC50) in test [1] and in test [2] was < 1 nM throughout. The EC50 in test [3] (Homo sapiens, A549, 168 h) was in the range of 20 to 100 nM; in test [4] (Homo sapiens, 168 h) it was 20 to 100 nM.

On to `Cc1cc2ccc(CC[C@@]3(C)C[C@@H](n4ccc5c(N)ncnc54)[C@H](O)[C@@H]3O)cc2nc1N` [Compound 10, (1S,2R,3S,5R)-3-[2-(2-amino-3-methyl-7-quinolyl)ethyl]-5-(4-aminopyrrolo[2,3-d]pyrimidin-7-yl)-3-methyl-cyclopentane-1,2-diol], for which the IC50 in test [1] and in test [2] was < 1 nM in each case. Moreover, the concentration giving a half-maximal response (EC50) in test [3] (Homo sapiens, A549, 168 h) was < 20 nM; in test [4] (Homo sapiens, 168 h), < 20 nM.

For the molecule `Nc1nc2cc(OC[C@H]3C[C@@H](n4ccc5c(N)ncnc54)[C@H](F)[C@@H]3O)ccc2cc1Br` [Compound 11, (1R,2S,3R,5R)-5-[(2-amino-3-bromo-7-quinolyl)oxymethyl]-3-(4-aminopyrrolo[2,3-d]pyrimidin-7-yl)-2-fluoro-cyclopentanol], the IC50 was 1 to 100 nM in test [1] and > 100 nM in test [2]. Besides, the EC50 in test [3] (Homo sapiens, A549, 168 h) was ≥ 1000 nM; in test [4] (Homo sapiens, 168 h) it was 100 to 1000 nM.

As for `C[C@]1(CCc2ccc3ccc(N)nc3c2)C[C@@H](n2ccc3c(N)ncnc32)[C@H](O)[C@@H]1O` [Compound 12, (1S,2R,3S,5R)-5-(4-amino-7H-pyrrolo[2,3-d]pyrimidin-7-yl)-3-(2-(2-aminoquinolin-7-yl)ethyl)-3-methylcyclopentane-1,2-diol], the IC50 in test [1] and in test [2] was < 1 nM in each case. Further, the EC50 in test [3] (Homo sapiens, A549, 168 h) is < 20 nM; in test [4] (Homo sapiens, 168 h), < 20 nM.

Take `Nc1ccc2ccc(CC[C@@]34C[C@@H]3[C@@H](n3ccc5c(N)ncnc53)[C@H](O)[C@@H]4O)cc2n1` [Compound 13, (1R,2R,3S,4R,5S)-4-(4-aminopyrrolo[2,3-d]pyrimidin-7-yl)-1-[2-(2-amino-7-quinolyl)ethyl]bicyclo[3.1.0]hexane-2,3-diol]: the IC50 in test [1] and in test [2] was < 1 nM in each case. The EC50 in test [3] (Homo sapiens, A549, 168 h) was < 20 nM; in test [4] (Homo sapiens, 168 h), < 20 nM.

For the molecule `C[C@]1(CCc2ccc3cc(C4CC4)c(N)nc3c2)C[C@@H](n2ccc3c(N)ncnc32)[C@H](O)[C@@H]1O` [Compound 14, (1S,2R,3S,5R)-3-[2-(2-amino-3-cyclopropyl-7-quinolyl)ethyl]-5-(4-aminopyrrolo[2,3-d]pyrimidin-7-yl)-3-methylcyclopentane-1,2-diol], the IC50 in test [1] and in test [2] was < 1 nM in each case. Also, the EC50 is < 20 nM in test [3] (Homo sapiens, A549, 168 h) and < 20 nM in test [4] (Homo sapiens, 168 h).

The values above are taken from patent US11198699B2 (ALIGOS THERAPEUTICS, INC., priority 2019, dated 2021).
